In assay [1] the test system is HCT116 isogenic IDH1-R132C mutant cells. Briefly: Cellular 2-HG assay using HCT116 mutant IDH1 cells (R132C), RapidFire mass spectrometry. It counts as cell-based. The conditions noted are these: Homo sapiens, read-out: HCT116 IDH1 R132C IC50 (Range).
The target of assay [2] is IDH1-R132H recombinant protein (Homo sapiens (Human), UniProt O75874, R132H). In words: IDH1-R132H enzymatic assay (inhibition of NADPH consumption, diaphorase/resazurin readout). The conditions noted are these: read-out: Enzyme IDH1 R132H IC50 (Range). It counts as biochemical. An outline of the steps:
(§1)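 Compound was preincubated 15 min at 25 °C with 30 nM IDH1-R132H or 10 nM IDH1-R132C in Tris pH 7.5 buffer with MgCl2, BSA and Triton X-100. Reaction with 2 mM α-ketoglutarate and 20 μM NADPH (solution concentrations) ran 45 min at 25 °C. Remaining NADPH was detected via diaphorase/resazurin fluorescence (ex 535/em 590 nm), and IC50 came from four-parameter fits.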

The target of assay [3] is IDH1-R132C recombinant protein (Homo sapiens (Human), UniProt O75874, R132C). In words: IDH1-R132C enzymatic assay (inhibition of NADPH consumption, diaphorase/resazurin readout). In kind it is biochemical. The conditions noted are these: read-out: Enzyme IDH1 R132C IC50 (Range). An outline of the steps: as §1
Sequence of IDH1-R132C recombinant protein (O75874 whole entry R132C): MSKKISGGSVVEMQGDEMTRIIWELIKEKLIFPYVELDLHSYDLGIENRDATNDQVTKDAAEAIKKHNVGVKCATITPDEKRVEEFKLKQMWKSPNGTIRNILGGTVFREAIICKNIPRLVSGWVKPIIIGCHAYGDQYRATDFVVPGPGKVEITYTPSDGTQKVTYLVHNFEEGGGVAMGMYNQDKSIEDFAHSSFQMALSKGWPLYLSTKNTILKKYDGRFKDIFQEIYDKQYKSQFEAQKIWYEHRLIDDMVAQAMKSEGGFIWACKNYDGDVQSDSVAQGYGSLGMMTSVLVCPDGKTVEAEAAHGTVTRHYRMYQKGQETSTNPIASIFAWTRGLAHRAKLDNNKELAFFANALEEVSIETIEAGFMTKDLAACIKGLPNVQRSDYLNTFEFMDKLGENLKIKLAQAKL
(Resazurin is reduced to fluorescent resorufin, in cell work by metabolically active cells.)

The subject of assay [4] is HCT116 isogenic IDH1-R132H mutant cells. Briefly: Cellular 2-HG assay using HCT116 mutant IDH1 cells (R132H), RapidFire mass spectrometry. It counts as cell-based. The conditions noted are these: Homo sapiens, read-out: HCT116 IDH1 R132H IC50 (Range).
[5] abbreviates: HCT-116, cellular 2-HG level, HCT116 IDH1-R132C cells, 24 hours.
The mark [6] stands for this setting: HCT-116, cellular 2-HG level, HCT116 IDH1-R132H cells, 24 hours.

Where two headings read alike, the source gives them in different places. A value given as a limit tells only on which side of the number the result lay.

Broadly, the IC50 is the concentration that gives 50% inhibition.

Sequence of IDH1-R132H recombinant protein (O75874 whole entry R132H): as the sequence (O75874 whole entry R132C) above, with C132H counted along it

For `Cc1cccn1-c1ccnc(N[C@@H](C)c2cc3cc(Cl)ccc3[nH]c2=O)n1` [Compound I-51, (S)-6-Chloro-3-(1-((4-(2-methyl-1H-pyrrol-1-yl)pyrimidin-2-yl)amino)ethyl) quinolin-2(1H)-one], the IC50 in assay [1] (setting [5]) is 0.1 to 1 µM; in assay [2] it was less than 0.1 µM; in assay [3], 0.1 to 1 µM; in assay [4] (setting [6]) it was 0.1 to 1 µM.
As for `CCC(=O)Nc1ccnc(N[C@@H](C)c2cc3cc(Cl)ccc3[nH]c2=O)n1` [Compound I-33], the IC50 in assay [1] (setting [5]) is 0.1 to 1 µM; in assay [2], less than 0.1 µM; in assay [3] it was less than 0.1 µM; in assay [4] (setting [6]) it was less than 0.1 µM.
Turning to `C[C@H](Nc1nccc(N2CCOC2=O)n1)c1cc2cc(Cl)ccc2[nH]c1=O` [Compound I-44, (S)-3-(2-((1-(6-Chloro-2-oxo-1,2-dihydroquinolin-3-yl)ethyl)amino)pyrimidin-4-yl)oxazolidin-2-one], the half-inhibitory concentration (IC50) in assay [1] (setting [5]) is 0.1 to 1 µM; in assay [2] it was less than 0.1 µM; in assay [3], less than 0.1 µM; in assay [4] (setting [6]), less than 0.1 µM.
As for `COc1nc(N[C@H](C)c2nc3cc(Cl)ccc3[nH]c2=O)ncc1C#N` [Compound I-157], the IC50 in assay [1] (HCT-116, 24 h) was 0.1 to 1 µM; in assay [2], 0.1 to 1 µM; in assay [3], 1 to 10 µM; in assay [4] (HCT-116, 24 h), less than 0.1 µM.
With `COc1nc(NC(C)c2cc3cc(Cl)c(F)cc3[nH]c2=O)ncc1C#N` (stereo not drawn) [Compound I-142], the IC50 in assay [1] (HCT-116, 24 h) is 0.1 to 1 µM; in assay [2] it was less than 0.1 µM; in assay [3] it was 0.1 to 1 µM; in assay [4] (HCT-116, 24 h), less than 0.1 µM.
With `COC(=O)c1ccnc(N[C@@H](C)c2cc3cc(Cl)ccc3[nH]c2=O)n1` [Compound I-129], the concentration for half-maximal inhibition (IC50) was 1 to 10 µM in assay [1] (setting [5]), 0.1 to 1 µM in assay [2], 1 to 10 µM in assay [3] and 1 to 10 µM in assay [4] (setting [6]).
`C[C@H](Nc1nccc(NC(=O)C2CC2)n1)c1cc2cc(Cl)ccc2[nH]c1=O` [Compound I-29]: the IC50 was 0.1 to 1 µM in assay [1] (setting [5]), less than 0.1 µM in assay [2], less than 0.1 µM in assay [3] and 0.1 to 1 µM in assay [4] (setting [6]).
With `CC(=O)Nc1ccnc(N[C@@H](C)c2cc3cc(Cl)c(F)cc3[nH]c2=O)n1` [Compound I-179, (S)—N-(2-((1-(6-chloro-7-fluoro-2-oxo-1,2-dihydroquinolin-3-yl)ethyl)amino)pyrimidin-4-yl)acetamide], the IC50 in assay [1] (setting [5]), in assay [2], in assay [3] and in assay [4] (setting [6]) was less than 0.1 µM in each case.
In the case of `CC(C)n1nccc1-c1ccnc(N[C@@H](C)c2cc3cc(Cl)ccc3[nH]c2=O)n1` [Compound I-75], the IC50 in assay [1] (setting [5]) is 1 to 10 µM; in assay [2], less than 0.1 µM; in assay [3] it was 0.1 to 1 µM; in assay [4] (setting [6]), 0.1 to 1 µM.
For `Cc1cnccc1-c1ccnc(N[C@@H](C)c2cc3cc(Cl)ccc3[nH]c2=O)n1` [Compound I-96], the IC50 was 0.1 to 1 µM in assay [1] (setting [5]), less than 0.1 µM in assay [2], 0.1 to 1 µM in assay [3] and less than 0.1 µM in assay [4] (setting [6]).
On to `COc1nc(N[C@@H](C)c2cc3cc(Cl)c(OCc4ccccn4)cc3[nH]c2=O)ncc1C#N` [Compound I-151, (S)-2-((1-(6-Chloro-2-oxo-7-(pyridin-2-ylmethoxy)-1,2-dihydroquinolin-3-yl)ethyl)amino)-4-methoxypyrimidine-5-carbonitrile], for which the IC50 in assay [1] (setting [5]), in assay [2], in assay [3] and in assay [4] (setting [6]) was less than 0.1 µM in each case.
`C[C@H](Nc1nccc(-c2cnsc2)n1)c1cc2cc(Cl)ccc2[nH]c1=O` [Compound I-88]: the IC50 is 1 to 10 µM in assay [1] (setting [5]), less than 0.1 µM in assay [2], 0.1 to 1 µM in assay [3] and 0.1 to 1 µM in assay [4] (setting [6]).
Turning to `C[C@H](Nc1nccc(NC(=O)C2CC2)n1)c1cc2cc(Cl)c(F)cc2[nH]c1=O` [Compound I-180, (S)—N-(2-((1-(6-chloro-7-fluoro-2-oxo-1,2-dihydroquinolin-3-yl)ethyl)amino)pyrimidin-4-yl)cyclopropanecarboxamide], the IC50 in assay [1] (setting [5]), in assay [2], in assay [3] and in assay [4] (setting [6]) was 0.1 to 1 µM each time.
As for `COc1cc2[nH]c(=O)c(C(C)Nc3ncc(C#N)c(OC)n3)cc2cc1Cl` (stereo not drawn) [Compound I-145], the IC50 is 0.1 to 1 µM in assay [1] (HCT-116, 24 h); less than 0.1 µM in assay [2]; less than 0.1 µM in assay [3]; less than 0.1 µM in assay [4] (HCT-116, 24 h).
Turning to `O=C1OCCN1c1ccnc(NCc2cc3cc(Cl)ccc3[nH]c2=O)n1` [Compound I-47], the IC50 in assay [1] (setting [5]) is 1 to 10 µM; in assay [2] it was 0.1 to 1 µM; in assay [3] it was 0.1 to 1 µM; in assay [4] (setting [6]) it was 0.1 to 1 µM.
As to `C[C@H](Nc1nccc(-c2cnnn2C)n1)c1cc2cc(Cl)ccc2[nH]c1=O` [Compound I-66, (S)-6-chloro-3-(1-((4-(1-methyl-1H-1,2,3-triazol-5-yl)pyrimidin-2-yl)amino)ethyl)quinolin-2(1H)-one], the IC50 lay in the range of 0.1 to 1 µM in assay [1] (setting [5]), 0.1 to 1 µM in assay [2], 1 to 10 µM in assay [3] and 0.1 to 1 µM in assay [4] (setting [6]).
For the compound `C[C@H](Nc1nccc(-c2ccn[nH]2)n1)c1cc2cc(Cl)ccc2[nH]c1=O` [Compound I-87], the IC50 lay in the range of 1 to 10 µM in assay [1] (setting [5]), 0.1 to 1 µM in assay [2], 1 to 10 µM in assay [3] and 0.1 to 1 µM in assay [4] (setting [6]).
For the compound `C[C@H](Nc1ncc(C#N)c(O)n1)c1cc2cc(Cl)c(OCc3ccccn3)cc2[nH]c1=O` [Compound I-152, (S)-2-((1-(6-chloro-2-oxo-7-(pyridin-2-ylmethoxy)-1,2-dihydroquinolin-3-yl)ethyl)amino)-4-hydroxypyrimidine-5-carbonitrile], the IC50 in assay [1] (setting [5]) was 1 to 10 µM; in assay [2] it was less than 0.1 µM; in assay [3], 1 to 10 µM; in assay [4] (setting [6]) it was 0.1 to 1 µM.
As to `C[C@H](Nc1nccc(-c2ccncc2)n1)c1cc2cc(Cl)ccc2[nH]c1=O` [Compound I-95], the IC50 in assay [1] (setting [5]) was 1 to 10 µM; in assay [2] it was 0.1 to 1 µM; in assay [3], 0.1 to 1 µM; in assay [4] (setting [6]), 0.1 to 1 µM.
As to `COc1cc2[nH]c(=O)c(C(C)Nc3nccc(N4CCOC4=O)n3)cc2cc1Cl` (stereo not drawn) [Compound I-146], the IC50 in assay [1] (setting [5]) was 0.1 to 1 µM; in assay [2], less than 0.1 µM; in assay [3], 0.1 to 1 µM; in assay [4] (setting [6]), less than 0.1 µM.
`COc1nc(N[C@@H](C)c2cc3cc(Cl)ccc3[nH]c2=O)ncc1C#N` [Compound I-36, (S)-2-((1-(6-Chloro-2-oxo-1,2-dihydroquinolin-3-yl)ethyl)amino)-4-methoxypyrimidine-5-carbonitrile]: the IC50 is 0.1 to 1 µM in assay [1] (HCT-116, 24 h); less than 0.1 µM in assay [2]; 0.1 to 1 µM in assay [3]; less than 0.1 µM in assay [4] (HCT-116, 24 h).
With `COc1nc(N[C@@H](C)c2cc3cc(Cl)cnc3[nH]c2=O)ncc1C#N` [Compound I-155, (S)-2-((1-(6-chloro-2-oxo-1,2-dihydro-1,8-naphthyridin-3-yl)ethyl)amino)-4-methoxy pyrimidine-5-carbonitrile], the IC50 is 1 to 10 µM in assay [1] (setting [5]), less than 0.1 µM in assay [2], 1 to 10 µM in assay [3] and 0.1 to 1 µM in assay [4] (setting [6]).
For `CNC(=O)c1ccnc(N[C@@H](C)c2cc3cc(Cl)ccc3[nH]c2=O)n1` [Compound I-115], the half-maximal inhibitory concentration (IC50) in assay [1] (setting [5]), in assay [2], in assay [3] and in assay [4] (setting [6]) was 0.1 to 1 µM in each case.
Take `COC(=O)Nc1ccnc(N[C@@H](C)c2cc3cc(Cl)c(OCc4ccccn4)cc3[nH]c2=O)n1` [Compound I-154, (S)-methyl (2-((1-(6-Chloro-2-oxo-7-(pyridin-2-ylmethoxy)-1,2-dihydroquinolin-3-yl)ethyl)amino)pyrimidin-4-yl)carbamate]: the IC50 in assay [1] (setting [5]), in assay [2], in assay [3] and in assay [4] (setting [6]) was less than 0.1 µM each time.
